A short description of data set [1]: Shape factor SF and particle shape from SEM images. Format: physicochemical. How it is done: Accordingly, the powder particles of the invention are characterized by a “shape factor” SF comprised between 0.8 and 1.0, preferably from 0.85 and 0.95 as determined according to the following equation reported in Kumar S et al., Curr. Appl. Phys. Influence of metal powder shape on drag coefficient in a spray jet, 2008, in press doi:10.1016/j.cap.2008.06.005.
RN indicates the roundness of the particle and is calculated by applying the following formula: […]
wherein p and A are the mean perimeter and area values, respectively, of ten spherical particles as measured from Scanning electron microscopy (SEM) images.
The shape factor of the obtained particles, calculated according to the equation reported in the Detailed Description of the Preferred Embodiments, turned out to be comprised between 0.87 and 0.95.

Data set [2] can be described thus: Force and work of adhesion by atomic force microscopy (colloid probe). Format: physicochemical. To be noted: against smooth lactose carrier. From the text:
The force of adhesion of the batches of powder particles obtained in Example 1 has been determined according to the procedure reported hereafter in comparison to those to those of micronised carmoterol hydrochloride and budesonide raw materials (r.m.) obtained by a conventional milling process.
As a substrate, alpha-lactose particles with a smooth surface having the characteristics reported in EP 1 196 146 and obtained as therein described are used.
An Atomic Force Microscope (AFM) as a scanning probe microscope is used to image lactose surface on an nm or even sub-nm level and to measure surface forces between the powder particles of the invention and particles of smoothed lactose.
A way to get information on the surface forces which are acting in a system and to illustrate the functioning of an AFM, is to use the “Force-Mode”. This is done by moving the tip towards and away from the surface. Recording photodetector signal as a function of z-piezo elongation yields a curve which can be interpreted as a force-vs.-distance-curve. In this work, this technique has been employed to measure the drug-carrier adhesion force modifying the original cantilever.
The interaction of the micron-sized carmoterol particles with lactose carrier surfaces is conducted using the Explorer AFM (Thermomicroscopes, UK). A multistage micromanipulation method for the attachment of micrometer-sized drug particles to tipless cantilevers was adapted from the method described by Preuss and Butt (Preuss M, Butt H-J. 1998, Langmuir, 14:3164-3174). Essentially, colloid probes are prepared by mounting an individual drug particle (approximate diameter 3-5 μm) onto a V-shaped tiples silicon nitride cantilever (spring constant k=0.58 N/m, Veeco Instruments Ltd., Cambridge, UK) using a quick-setting epoxy resin together with the custom-built microscope.
Force separation measurements are collected using layered imaging mode to produce multiple force distance curves (n=250) between each drug probe at three surface sites over a 10 μm×10 μm area. As the variability in probe contact radius geometry was unknown each study is performed at least in triplicate (n=3 to 4 probes for each measurement).
The displacement curves for each of the 250 contact points in the 10 μm×10 μm sector are plotted using a custom built MatLab program (The Mathworks Inc. USA).
The force of adhesion (the apex of the adhesion peak) and the work of adhesion (integrated area of the adhesion peak) is calculated for each graph. […] Outliers are defined as data points outside the 5-95% limits of the normal distributions obtained, and these are removed automatically by the batch conversion software. […]

Each structure is given as a SMILES string. Where a name gives a salt, the structure may show the parent alone.

As to `COc1ccc(C[C@@H](C)NC[C@H](O)c2ccc(O)c3[nH]c(=O)ccc23)cc1` [Carmoterol HCl r.m., 8-hydroxy-5-[(1R)-1-hydroxy-2-[[(1R)-2-(4-methoxyphenyl)-1-methylethyl]amino]ethyl]-2(1H)-quinolinone], the “shape factor SF” value in data set [1] (SF=1/RN, RN=p^2/4πA, from SEM images) came to 0.51. In data set [1] (scanning electron microscope, FIG. 1), the “particle shape by SEM inspection” value is “different irregular flakes and/or sheets”. In data set [2] (particle population (20%)), the “Force of adhesion Fmax” value is 11.03 ± 1.27 (20%) nN and the “Work of adhesion Wad” value was 413.15 ± 131.85 µJ. In data set [2] (particle population (80%)), the “Force of adhesion Fmax” value is reported as 42.68 ± 4.63 (80%) nN and the “Work of adhesion Wad” value was 2115.69 ± 344.31 µJ.

(Values after patent US20110097409A1, “PARTICLES COMPRISING A SALT OF 8-HYDROXY-2-[[(1R)-2-(4-METHOXYPHENYL)-1-METHYLETHYL]AMINO]ETHYL]-2(1H)-QUINOLINONE HAVING IMPROVED ADHESION PROPERTIES FOR POWDER FORMULATIONS FOR INHALATION” (Chiesi Farmaceutici S.p.A., priority 2008, published 2011).)
